Values joined by “and” are separate entries in the source; they are usually repeats but may differ in a detail not shown here. Equal entries are not always repeated. Where two headings read alike, the source gives them in different places.
Assays:
[1] = biological target: T1, human liver cytosolic AOX1 (Homo sapiens, UniProt Q06278); assay: Partition ratio determination (titration, human liver cytosol); format: biochemical; set-up: Enzymatic reaction was initiated by adding human liver cytosol (100 μg); tissue Corning, Inc. (Gentest brand) 452115; host or cells: human liver cytosol, pool of 150 donors; details: for partition ratio, fold greater than erlotinib / turnover number and partition ratio, fold greater than erlotinib: Table 1 values; for Turnover Number: human liver cytosol; for Partition Ratio: turnover number minus 1
T1 sequence (Q06278 1-1338): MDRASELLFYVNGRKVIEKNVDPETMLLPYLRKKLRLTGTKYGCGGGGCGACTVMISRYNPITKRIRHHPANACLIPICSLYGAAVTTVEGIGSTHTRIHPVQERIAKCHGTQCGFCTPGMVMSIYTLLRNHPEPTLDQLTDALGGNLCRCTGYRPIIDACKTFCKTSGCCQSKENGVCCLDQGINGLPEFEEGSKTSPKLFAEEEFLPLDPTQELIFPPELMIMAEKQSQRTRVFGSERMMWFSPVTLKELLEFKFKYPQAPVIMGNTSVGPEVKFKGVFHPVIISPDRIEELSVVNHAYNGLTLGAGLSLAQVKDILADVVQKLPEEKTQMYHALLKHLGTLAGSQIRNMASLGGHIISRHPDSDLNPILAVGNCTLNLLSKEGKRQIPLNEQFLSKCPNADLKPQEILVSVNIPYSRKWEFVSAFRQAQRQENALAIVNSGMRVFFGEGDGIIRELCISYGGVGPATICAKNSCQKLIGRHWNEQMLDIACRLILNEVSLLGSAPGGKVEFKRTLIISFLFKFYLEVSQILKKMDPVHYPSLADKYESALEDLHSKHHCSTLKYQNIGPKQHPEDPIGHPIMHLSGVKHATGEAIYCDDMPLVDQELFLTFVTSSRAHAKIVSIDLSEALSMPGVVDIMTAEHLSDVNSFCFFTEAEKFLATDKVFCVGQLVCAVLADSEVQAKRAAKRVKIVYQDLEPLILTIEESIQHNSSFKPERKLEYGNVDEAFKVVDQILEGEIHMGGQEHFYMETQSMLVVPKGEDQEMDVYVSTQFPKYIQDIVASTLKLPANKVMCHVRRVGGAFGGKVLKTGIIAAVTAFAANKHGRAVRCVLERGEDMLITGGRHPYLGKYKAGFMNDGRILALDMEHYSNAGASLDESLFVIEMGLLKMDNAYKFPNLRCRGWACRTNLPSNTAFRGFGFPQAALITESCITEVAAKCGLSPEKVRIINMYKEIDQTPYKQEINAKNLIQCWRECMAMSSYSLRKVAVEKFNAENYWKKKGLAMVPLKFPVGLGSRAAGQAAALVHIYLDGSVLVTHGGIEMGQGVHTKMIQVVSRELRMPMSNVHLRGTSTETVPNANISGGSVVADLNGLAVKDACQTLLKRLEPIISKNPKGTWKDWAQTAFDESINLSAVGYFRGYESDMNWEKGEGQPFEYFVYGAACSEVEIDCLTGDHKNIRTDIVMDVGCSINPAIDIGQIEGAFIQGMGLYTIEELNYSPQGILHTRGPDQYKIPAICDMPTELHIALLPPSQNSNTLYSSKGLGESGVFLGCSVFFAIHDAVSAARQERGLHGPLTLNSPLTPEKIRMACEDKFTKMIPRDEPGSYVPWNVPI
Description: The enzyme kinetic experiments were conducted as described above. The incubation was allowed to proceed until saturation of enzyme has been reached (6 or 18 minutes, as specified in each figure legend). Carbazeran 4-oxidation was plotted against the ratio of inactivator concentration to AOX1 protein concentration in the incubation mixture of 200 μL. The specific lot of human liver cytosol (#38292) used in this study contained 1.05 ± 0.01 pmol/μL (mean ± SD) of AOX1 protein, as assessed by capillary nanoproteomic immunoassay.[27] The turnover number was the extrapolation of the intercept of the 2 linear regression lines to the x-axis, which was determined by solving the 2 linear regression equations. The partition ratio was calculated by subtracting the turnover number by 1, assuming 1:1 stoichiometry between the inactivator and the enzyme.[29]

[2] = biological target: T1, human liver cytosolic AOX1; assay: Enzyme inactivation of human liver cytosolic AOX1-mediated carbazeran 4-oxidation; details: for kinact: human liver cytosol 100 μg, carbazeran 15 μM, 37 °C; for Experimental Log KI: log of KI
Description: Carbazeran 4-oxidation and O^6-benzylguanine 8-oxidation were deployed as AOX1-selective catalytic markers.[27] The assay conditions (amount of cytosolic protein, incubation time, and substrate concentration) for carbazeran 4-oxidation catalyzed by human recombinant AOX1 and human/rat/mouse liver cytosols were optimized previously.[7]^,[25]
Enzymatic reaction was initiated by adding human liver cytosol (100 μg). After the specified preincubation duration, an aliquot (10 μL) of the preincubation mixture was transferred to 190 μL of a prewarmed (for 3 minutes at 37 °C) secondary incubation mixture (total volume of 200 μL) containing potassium phosphate buffer and carbazeran (15 μM) or O^6-benzylguanine (150 μM), which yielded a 20-fold dilution of the primary incubation mixture. The secondary incubation mixture was incubated for 5 minutes at 37 °C before the enzymatic reaction was terminated with 200 μL of ice-cold acetonitrile containing carbazeran-d4 (2.5 nM final concentration; internal standard for 4-oxo-carbazeran) or tolbutamide (25 nM final concentration; internal standard for 8-oxo-O^6-benzylguanine). Each sample was immediately mixed by vortex, placed on ice, centrifuged at 16,000g for 15 minutes at 4 °C and stored at –30 °C until ultra-high performance liquid chromatography–tandem mass spectrometry (UPLC-MS/MS) analysis. For enzyme inactivation assays involving rat and mouse liver cytosol and recombinant AOX1 assays, the experimental conditions were similar to those of human liver cytosol, except that the amount of cytosolic protein was 200 μg (rat) and 150 μg (mouse), respectively, and the incubation time of the secondary incubation mixture was 60 minutes. For the recombinant AOX1 enzyme assay, the amount of enzyme was 100 μg, the incubation time of the secondary incubation mixture was 15 minutes, and the total volume of the primary and secondary incubation mixtures was reduced to 100 μL.
Preliminary experiments were performed to optimize the incubation time and concentration of an inactivator to ensure a log-linear decrease in enzyme activity over time and that the kobs versus inactivator concentration plot reaches a plateau for the determination of the kinact value. The observed first-order rate constant for inactivation (kobs), maximal inactivation rate constant (kinact), half-maximal inactivation concentration (KI), and the time required for half of the enzyme molecules to be inactivated (t1/2) were calculated as described in our previous publication.[28]

[3] = biological target: T1, human liver cytosolic AOX1; assay: AOX1 inactivation, O^6-benzylguanine 8-oxidation by human liver cytosol; format: biochemical; set-up: Enzymatic reaction was initiated by adding human liver cytosol (100 μg); tissue Corning, Inc. (Gentest brand) 452115; host or cells: human liver cytosol, pool of 150 donors; details: gefitinib 3, 10, 30 μM
[4] = half-maximal inactivation concentration, human liver cytosol, carbazeran 4-oxidation
[5] = human liver cytosol, carbazeran 4-oxidation
[6] = read-out: KI,u, unbound, KI,u = fu × KI, fu at 10 μM in human liver cytosol
[7] = human liver cytosol, 10 μM (raloxifene 0.02 μM), 30-minute preincubation
[8] = human liver cytosol, inactivator 1.5 μM alone, 6-minute preincubation

With `C#Cc1cccc(Nc2nc(C)nc3cc(OCCOC)c(OCCOC)cc23)c1` [2-Methylerlotinib, 2-methylerlotinib] the “partition ratio, fold greater than erlotinib” value [1] was 1.9 fold, the “Turnover Number” value [1] was 49.9 ± 1.40 and the “Partition Ratio” value [1] was 48.9 ± 1.40. For the same compound, the “KI, fold higher compared with erlotinib” value ([2]; Table 1 values) was 1.5 fold, the “kinact, decrease compared with erlotinib” value ([2]; Table 1 values) was 26% and the “kinact/KI ratio, decrease compared with erlotinib” value ([2]; Table 1 values) was 51%. The “t1/2, fold longer compared with erlotinib” value (shortened to “t1/2, fold longer”) ([2]; Table 1 values) was 1.3 fold, the Ki [2, 4] was 4 ± 0.27 µM and the kinact [2] was 0.84 ± 0.10∗∗ min^–1. The “Inactivation t1/2” value [2, 5] was 0.83 ± 0.11 min, the kinact/KI [2, 5] was 0.21 ± 0.01∗∗∗ min^–1μM^–1 and the Ki [2, 6] was 2.04 ± 0.14 µM.

In the case of `C=Cc1cccc(Nc2ncnc3cc(OCCOC)c(OCCOC)cc23)c1` [3-Vinylerlotinib, 3-vinylerlotinib], the “partition ratio, fold greater than erlotinib” value [1] is reported as 10 fold, the “turnover number and partition ratio, fold greater than erlotinib” value [1] is reported as 10 fold and the “Turnover Number” value [1] is reported as 271 ± 23.5∗∗∗. For the same compound, the “Turnover Number” value ([1]; listed as 3-vinylerlotinib) was 271, the “Partition Ratio” value [1] was 270 ± 23.5∗∗∗ and the “Partition Ratio” value ([1]; listed as 3-vinylerlotinib) was 270. The “KI, fold higher compared with erlotinib” value ([2]; Table 1 values) was roughly 11 fold, the “kinact, fold lower compared with erlotinib” value ([2]; Table 1 values) was “approximately 3.5 fold” and the “kinact/KI ratio, fold lower compared with erlotinib” value ([2]; Table 1 values) was roughly 43 fold. The “t1/2, fold longer” value ([2]; Table 1 values) was “approximately 3.5 fold”, the Ki [2, 4] was 30.6 ± 9.6 µM and the kinact [2] was 0.33 ± 0.07∗∗∗ min^–1. For the same compound, the “decrease in carbazeran 4-oxidation” value [2, 7] was 84%, the “decrease in carbazeran 4-oxidation” value ([2]; human liver cytosol, 6 minutes of preincubation (data not shown)) was “did not decrease” and the “Inactivation t1/2” value [2, 5] was 2.14 ± 0.47∗ min. For the same compound, the “Experimental Log KI” value ([2]; human liver cytosol) was 1.5 ± 0.15∗∗∗ μM and the Ki [2, 6] was 23.9 ± 7.53 µM.

For `C#Cc1cc(Nc2ncnc3cc(OCCOC)c(OCCOC)cc23)ccc1C` [4′-Methylerlotinib, 4′-methylerlotinib], the “turnover number and partition ratio, fold greater than erlotinib” value [1] was 1.6 fold, the “Turnover Number” value [1] was 42.9 ± 4.32 and the “Partition Ratio” value [1] was 41.9 ± 4.32. For the same compound, the “KI, decrease compared with erlotinib” value ([2]; Table 1 values) was 62%, the “kinact, decrease compared with erlotinib” value ([2]; Table 1 values) was 88% and the “kinact/KI ratio, decrease compared with erlotinib” value ([2]; Table 1 values) was 70%. The “t1/2, fold longer” value ([2]; Table 1 values) was 8.5 fold, the Ki [2, 4] was 1.03 ± 0.27 µM and the kinact [2] was 0.14 ± 0.03∗∗∗ min^–1. For the same compound, the “Inactivation t1/2” value [2, 5] was 5.29 ± 1.19∗∗∗ min, the kinact/KI [2, 5] was 0.13 ± 0.02∗∗∗ min^–1μM^–1 and the Ki [2, 6] was 0.75 ± 0.2 µM.

For `C#Cc1cccc(Nc2ncnc3cc(OCCOC)c(OCCOC)cc23)c1` [Erlotinib], the “Turnover Number” value [1] was 26.9 ± 1.30, the “effect of gefitinib on extent of AOX1 inactivation” value (shortened to “effect of gefitinib”) [3] was “attenuated” and the “Inactivation t1/2” value [2, 5] was 0.62 ± 0.09 min.

With `C#Cc1cccc(Nc2ncnc3cc(OCCOC)c(OCCO)cc23)c1` [O-Desmethylerlotinib, O-desmethylerlotinib] the “Turnover Number” value [1] was 35.2 ± 4.78, the “Partition Ratio” value [1] was 34.2 ± 4.78 and the “effect of gefitinib” value [3] was “attenuated”. The kinact [2] was 1.05 ± 0.06 min^–1, the “decrease in carbazeran 4-oxidation” value [2, 7] was 99% and the “Inactivation t1/2” value [2, 5] was 0.66 ± 0.04 min. The kinact/KI [2, 5] was 0.21 ± 0.04∗∗∗ min^–1μM^–1, the “decrease in carbazeran 4-oxidation” value [2, 8] was 69% and 79% and 80% and the “Experimental Log KI” value ([2]; human liver cytosol) was 0.71 ± 0.11∗ μM. For the same compound, the Ki [2, 6] was 4.41 ± 1.04 µM and the KI (inactivation) ([2]; read-out: KI, half-maximal inactivation concentration, human liver cytosol, carbazeran 4-oxidation) was 5.23 ± 1.24 µM.

`C#Cc1cccc(Nc2ncnc3cc(OCCO)c(OCCO)cc23)c1` [O-Didesmethylerlotinib, O-didesmethylerlotinib] was tested, and the “Turnover Number” value [1] was 24.6 ± 1.29, the “Partition Ratio” value [1] was 23.6 ± 1.29 and the “effect of gefitinib” value [3] was “attenuated”. The Ki [2, 4] was 1.98 ± 0.2 µM, the kinact [2] was 1.00 ± 0.04 min^–1 and the “decrease in carbazeran 4-oxidation” value [2, 7] was 99%. For the same compound, the “Inactivation t1/2” value [2, 5] was 0.70 ± 0.03 min, the kinact/KI [2, 5] was 0.50 ± 0.03∗∗ min^–1μM^–1 and the “decrease in carbazeran 4-oxidation” value [2, 8] was 90% and 89% and 92%. The “Experimental Log KI” value ([2]; human liver cytosol) was 0.30 ± 0.04 μM and the Ki [2, 6] was 1.67 ± 0.17 µM.

Source: PMC12881681 (Molecular Pharmacology, 2025)
